{"source": "patent US20090291088A1", "about": "“THERAPEUTIC COMBINATIONS OF ANTI-IGF-1R ANTIBODIES AND OTHER COMPOUNDS” (Biogen Idec MA Inc., priority 2008, published 2009)", "key": {"[1]": {"system": "MiaPaCa2 pancreatic carcinoma cells", "assay": "MiaPaCa2 pancreatic carcinoma xenograft", "assay_type": "in vivo, mouse", "details": "gemcitabine alone, 20 mg/kg, Q4D×3", "from_the_text": "Female SCID mice were innoculated in the right flank with 2×10^6 MiaPaCa2 pancreatic carcinoma cells in 50% Matrigel (BD Biosciences)/PBS."}, "[2]": {"system": "NSCLC, pancreatic and colon cancer cell lines", "assay": "Cell viability, M13-C06 and PI-103 alone or combined", "assay_type": "cell-based", "details": "PI-103, colon cancer cell lines", "description": "Cells were plated at 5000 cells/well in 96-well tissue culture plates in cell culture medium containing 10% fetal bovine serum, then treated with M13-C06 or PI-103 (American Custom Chemicals Corp. cat# 371935-74-9) as single agents or in combination at 1:3 serial dilutions with a starting concentration of 200 nM and 10 microM for M13-C06 and PI-103 respectively. The cell viability was determined three or five days later by measuring ATP levels with CELL TITER GLO™ reagent from Promega."}, "[3]": {"system": "NSCLC, pancreatic and colon cancer cell lines", "assay": "Cell viability, M13-C06 and erlotinib alone or combined", "assay_type": "cell-based", "description": "M13-C06 (human IgG4 Pagly anti-IGF-1R antibody) is currently in clinical development for multiple solid tumors. We evaluated the effect of anti-IGF-1R M13-C06 in combination with erlotinib (American Custom Chemicals Corp., cat# 183319-69-9 (San Diego, Calif.)) on the growth (proliferation) of a panel of NSCLC, pancreatic and colon cancer cell lines. Cells were plated at 5000 cells per well in 96-well tissue culture plates in RPMI-1640 (containing 10% fetal bovine serum (FBS, Hyclone cat# Sh30071.03)) and then treated with M13-C06 or erlotinib as single agents or in combination at 1:3 serial dilutions with a starting concentration of 200 nM and 20 microM for M13-C06 and for erlotinib respectively."}, "[4]": {"system": "AKT and MAPK phosphorylation in NSCLC cell lines", "assay": "Western blot of AKT and MAPK phosphorylation, M13-C06 and erlotinib", "assay_type": "cell-based", "details": "10 microM erlotinib, 3 hours", "description": "We set to determine the molecular mechanisms underlying the observed enhanced anti-tumor effect of combining erlotinib and M13-C06 in NSCLC cell lines. AKT and MAPK activation status was evaluated after treatment with erlotinib and M13-C06 as single agents or in combination, since AKT and MAPK are common downstream signaling targets of IGF-1R and EGFR. Tumor cell lines were plated onto 6-well plates at 1.2×10^6 per well, in RPMI+10% FBS media, and allowed to adhere overnight. The following day, media from wells was removed and replaced with 100 nM M13-C06 or IDEC151 (human IgG4 isotype control antibody) in combination with either media (single agent control) or 10 microM erlotinib in media. Assay plates were incubated in a 37° C., 5% C02 humidified incubator for 3 hours, and cellular proteins were extracted in cell lysis buffer (Cell Signaling Technology, cat# 9803 (Danvers, Mass. USA)). Protein concentrations in lysates were measured using a BCA protein assay kit (Pierce, cat# 23227 (Pierce Biotechnology, Inc., Rockford, Ill.)) and equal amount of proteins were run on a NUPAGE 4-12% Tris-Bis gel, and transferred to a nitrocellulose membrane (0.45 μm pore). Phosphorylation was detected by treatment with antibodies specific for phospho-AKT, total AKT, phospho-MAPK, or total MAPK (Cell Signaling technology, cat #9271, 9272, 9101, 9102), followed by treatment with anti-Rabbit-IgG-HRP (Southern Biotech. cat# 4050-05). Blots were developed with Supersignal Western Substrate Kit (Pierce, cat#34095) and the chemiluminescent image was captured on a BioRad Max2 imager. […] In general, the effects of M13-C06 and erlotinib on downstream signaling molecules AKT and MAPK correlate with their effects on cell growth as shown in FIG. 41."}, "[5]": {"system": "NSCLC, pancreatic, colon cancer and sarcoma cell lines", "assay": "Cell viability, M13-C06 and rapamycin alone or combined", "assay_type": "cell-based", "description": "For cell growth assays, cells were plated at 5000 cells per well in 96-well tissue culture plates in RPMI-1640 containing 10% fetal bovine serum (for most cell lines) or McCoy's 5A plus 15% FBS (for sarcoma cell lines). Cells were treated with M13-C06 and rapamycin (American Custom Chemicals Corp. cat# 53123-88-9) as a single agent or in combination at 1:3 serial dilutions with a starting concentration of 200 nM for M13-C06 and 100 nM or 1 microM for rapamycin for three or five days. Cell viability was determined by measuring ATP levels with CELL TITER GLO™ reagent."}, "[6]": {"system": "AKT and S6K signaling in sarcoma and lung tumor cell lines", "assay": "Western blot of AKT and S6K phosphorylation, M13-C06 and rapamycin", "assay_type": "cell-based", "details": "100 nM rapamycin, 3 hours", "description": "It has been reported that rapamycin inhibition of mTOR induces AKT activation through S6K (S6 kinase) and IGF-1R/IRS-1 (Insulin Receptor Substrate-1) dependent feedback loop (O'Reilly, et al., Cancer Research, vol. 66, p. 1500-1508 (2006)). We therefore examined the effect of M13-C06 and rapamycin on AKT and S6K signaling in selected sarcoma and lung tumor cell lines in which M13-C06 enhanced the anti-tumor activity of rapamycin. Cells were plated onto 12 well plates at 6×10^5 per well, in McCoy's 5A medium plus 15% FBS for sarcoma and RPMI-1640 plus 10% FBS for NSCLC cell lines, and allowed to adhere overnight. The following day, media from wells was removed and replaced with 100 nM M13-C06 or IDEC151 in combination with either media (single agent control) or 100 nM rapamycin in media. Assay plates were incubated in a 37° C., 5% CO2 humidified incubator for 3 hours, cells were lysed in Cell Signaling Lysis Buffer (Cell Signal Technologies, #9803), and the lysates were normalized by protein concentration and run on a NUPAGE 4-12% Tris-Bis gel, then transferred to a nitrocellulose membrane. Phosphorylation status of AKT and S6K was detected by treatment with antibodies specific for phospho-AKT, total AKT phospho-S6K, or total S6K (Cell Signaling technology, cat# 2215, 2217), then by treatment with anti-Rabbit-IgG-HRP (Cell Signaling Biotechnology, cat# 7071). […]"}}}
{"compound": "Nc1ccn([C@@H]2O[C@H](CO)[C@@H](O)C2(F)F)c(=O)n1", "note": "[gemcitabine]", "values": [{"measurement": "tumor growth", "setting": "[1]", "value": "inhibited tumor growth"}]}
{"compound": "Oc1cccc(-c2nc(N3CCOCC3)c3oc4ncccc4c3n2)c1", "note": "[PI-103, 3-[4-(4-morpholinyl)pyrido[3′,2′:4,5]furo[3,2-d]pyrimidin-2-yl]-phenol, reference compound]", "values": [{"measurement": "cell growth", "setting": "[2]", "value": "None of the colon cancer cell lines appeared to be sensitive to PI-103 inhibition"}]}
{"compound": "C#Cc1cccc(Nc2ncnc3cc(OCCOC)c(OCCOC)cc23)c1", "note": "[erlotinib, N-(3-ethynylphenyl)-6,7-bis(2-methoxyethoxy)quinazolin-4-amine, reference compound]", "values": [{"measurement": "cell growth", "setting": "[3]; erlotinib single agent, 7 NSCLC cell lines, five days", "value": "substantially inhibited the growth of only H322M and H1650 cell lines"}, {"measurement": "cell growth", "setting": "[3]; erlotinib, 5 colon cancer cell lines", "value": "none of 5 colon cancer cell lines showed substantial growth inhibition"}, {"measurement": "phosphorylation of MAPK", "setting": "[4]; A549 cells", "value": "partial inhibition of MAPK phosphorylation"}, {"measurement": "phosphorylation of MAPK", "setting": "[4]; H322M cells", "value": "completely abolished detectable phosphorylation of MAPK"}, {"measurement": "phosphorylation of MAPK", "setting": "[4]; H1299 and NCI-H23 cells", "value": "little effect"}]}
{"compound": "(16Z,24Z,26Z,28Z)-1,18-dihydroxy-12-[1-(4-hydroxy-3-methoxycyclohexyl)propan-2-yl]-19-methoxy-15,17,21,23,29,35-hexamethyl-30-(5-methylthiophen-2-yl)-11,36-dioxa-4-azatricyclo[30.3.1.0̂ {4,9}]hexatriaconta-16,24,26,28-tetraene-2,3,10,14,20-pentone [rapamycin, reference compound]", "values": [{"measurement": "cell growth", "setting": "[5]; rapamycin, colon cancer cell lines", "value": "most colon cancer cell line tested did not respond well to rapamycin"}, {"measurement": "cell growth", "setting": "[5]; single agent, SJSA-1 cells", "value": "did not respond"}, {"measurement": "phosphorylation of S6K", "setting": "[6]", "value": "inhibited phosphorylation of S6K"}, {"measurement": "AKT phosphorylation", "setting": "[6]; all cell lines tested", "value": "induced AKT phosphorylation in all cell lines tested"}]}
